Source: patent EP2112152A1, “Dihydropteridinones as Plk Inhibitors” (GPC Biotech AG, priority 2008, dated 2009)
Where two headings read alike, the source gives them in different places. Blank lines part the entries; values can stand above or below the compound they belong to.

Assays:
PC-3 = assay: SRB cell proliferation assay, PC-3; assay type: cell-based; settings: Homo sapiens, 18-Cell Line Panel, prostate
Procedure: (§1) Cells were exposed to the test compounds at various concentrations appropriate to determine an IC50 for 72 hours. Cell proliferation was measured using the SRB assay according to Shekan et al (J Natl Cancer Inst (1990) 82, 1107-112) in order to estimate the IC50 values shown in Table 3. Briefly, cells were plated in 96 well dishes 24 hours prior to compound addition at the densities specified in Table 5.1. The assay was terminated with the addition of cold TCA to a final concentration of 10% after growth medium has been removed and the plates were incubated over night at 4°C. The plates were then washed 5 times with water and 100µl of a Sulforhodamine B solution (4%) was added to each well. The plates were then incubated for 10 minutes at room temperature before removal of unbound dye by washing with 1% acetic acid. The bound dye was solubilised with 10 mM Trizma base and the absorbance read at OD520.
(§2) Table 8.1: 18-Cell Line Panel

SK-MEL-28 = assay: SRB cell proliferation assay, SK-MEL-28; assay type: cell-based; settings: Homo sapiens, 18-Cell Line Panel, melanoma
Procedure: as §1, §2

IMR-90 = assay: SRB cell proliferation assay, IMR-90; assay type: cell-based; settings: Homo sapiens
Procedure: (§3) We observed the surprising finding that compounds of the invention were useful in inhibiting proliferation of tumor cell lines (see Table 3).
as §1
(§4) Inhibitory activity of the compounds (IC) was calculated as % inhibition of cell proliferation compared to cells treated with the solvent (DMSO).
as §2

HCT 116 = assay: SRB cell proliferation assay, HCT 116; assay type: cell-based; settings: Homo sapiens
Procedure: as §3, §1, §4, §2

ACHN = assay: SRB cell proliferation assay, ACHN; assay type: cell-based; settings: Homo sapiens, 18-Cell Line Panel, kidney
Procedure: as §1, §2

A549 = assay: SRB cell proliferation assay, A549; assay type: cell-based; settings: Homo sapiens, 18-Cell Line Panel, lung
Procedure: as §1, §2

OVCAR-3 = assay: SRB cell proliferation assay, OVCAR-3; assay type: cell-based; settings: Homo sapiens, 18-Cell Line Panel, ovary
Procedure: as §1, §2

MDA-MB-231 = assay: SRB cell proliferation assay, MDA-MB-231; assay type: cell-based; settings: Homo sapiens, 18-Cell Line Panel, breast
Procedure: as §1, §2

SK-MEL-5 = assay: SRB cell proliferation assay, SK-MEL-5; assay type: cell-based; settings: Homo sapiens, 18-Cell Line Panel, melanoma
Procedure: as §1, §2

NCI-H460 = assay: SRB cell proliferation assay, NCI-H460; assay type: cell-based; settings: Homo sapiens, 18-Cell Line Panel, NSCLC
Procedure: as §1, §2

MDA-MB-468 = assay: SRB cell proliferation assay, MDA-MB-468; assay type: cell-based; settings: 18-Cell Line Panel; breast
Procedure: as §1, §2

SW620 = assay: SRB cell proliferation assay, SW620; assay type: cell-based; settings: Homo sapiens, SW-620; 18-Cell Line Panel; colon
Procedure: as §1, §2

A-431 = assay: SRB cell proliferation assay, A-431; assay type: cell-based; settings: Homo sapiens, 18-Cell Line Panel, skin
Procedure: as §1, §2

A-375 = assay: SRB cell proliferation assay, A-375; assay type: cell-based; settings: Homo sapiens, 18-Cell Line Panel, melanoma
Procedure: as §1, §2

COLO 205 = assay: SRB cell proliferation assay, COLO 205; assay type: cell-based; settings: Homo sapiens, 18-Cell Line Panel, colon
Procedure: as §1, §2

HT-29 = assay: SRB cell proliferation assay, HT-29; assay type: cell-based; settings: Homo sapiens
Procedure: as §3, §1, §4, §2

DU 145 = assay: SRB cell proliferation assay, DU 145; assay type: cell-based; settings: Homo sapiens, 18-Cell Line Panel, prostate, read-out: IC50 DU145
Procedure: as §1, §2

HeLa = assay: SRB cell proliferation assay, HeLa; assay type: cell-based; settings: Homo sapiens, 18-Cell Line Panel, cervix
Procedure: as §1, §2

[1] = tested on: Abl, Akt1, Aur A, c-Kit, c-Raf, Cdk1/CycB, Chk1, FGFR3, Flt3, Fyn, IGF1-R, INSR, Lyn, MAPK-ERK1, p38a, PAK4, PKCalpha, Ret, ROCK2, RSK 1, c-Src, TIE2, and …; assay: Selectivity panel (Proteros), 23 other kinases; assay type: biochemical; settings: tested at 1 mM in triplicates; each of the 23 other kinases
Procedure: Selected compound of the present invention were tested in a standard selectivity panel including Plk1 and 23 other kinases (Proteros biostructures GmbH, Martinsried/Munich, Germany), under conditions of non-disclosure, non-dissemination and non-use.
In brief, compounds 1, 13, 14, and 25 (see Table 1) were tested at 1 mM in triplicates against Plk1 as well as against Abl, Akt1, Aur A, c-Kit, c-Raf, Cdk1/CycB, Chk1, FGFR3, Flt3, Fyn, IGF1-R, INSR, Lyn, MAPK-ERK1, p38a, PAK4, PKCalpha, Ret, ROCK2, RSK 1, c-Src, TIE2, and VEGF-R2.

Plk1 = Plk1 (Homo sapiens, UniProt P53350); assay: Cellular Plk1 kinase activity: nucleophosmin (B23) Ser4 phosphorylation in HCT116 cells (MSD electrochemiluminescence); assay type: cell-based; design: host or cells: HCT116; settings: 100 ng/ml nocodazole, 4 hours after compound addition, read-out: Biochemical IC50 Nucleophosmin assay
Chain of Plk1 (P53350 whole entry, species assumed): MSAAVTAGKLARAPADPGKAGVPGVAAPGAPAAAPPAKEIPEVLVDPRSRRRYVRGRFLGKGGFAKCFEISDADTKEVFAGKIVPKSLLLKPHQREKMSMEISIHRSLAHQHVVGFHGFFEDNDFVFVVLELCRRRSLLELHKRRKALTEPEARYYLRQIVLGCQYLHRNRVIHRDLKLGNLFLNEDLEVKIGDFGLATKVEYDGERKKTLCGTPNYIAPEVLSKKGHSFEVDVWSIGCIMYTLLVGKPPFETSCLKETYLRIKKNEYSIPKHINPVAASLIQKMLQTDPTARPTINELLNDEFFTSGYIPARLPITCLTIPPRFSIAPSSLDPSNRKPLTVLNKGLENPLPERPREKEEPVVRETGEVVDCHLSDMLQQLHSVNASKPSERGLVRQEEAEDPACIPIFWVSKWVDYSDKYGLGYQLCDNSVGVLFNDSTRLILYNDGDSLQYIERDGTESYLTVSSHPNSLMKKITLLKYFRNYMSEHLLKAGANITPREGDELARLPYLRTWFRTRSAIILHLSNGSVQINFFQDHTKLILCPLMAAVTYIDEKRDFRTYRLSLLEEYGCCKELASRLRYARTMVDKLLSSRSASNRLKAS
Procedure: We observed the surprising finding that compounds of the invention were able to penetrate cell membranes and retained their activity as Plk1 inhibitors against native Plk1 expressed within living cancer cells.
Cellular Plk1 kinase activity was measured by quantification of nucleophosmin (B23) Ser4 phosphorylation in a cancer cell line. Nucleophosmin (B23) Ser4 is phosphorylated by Plk1, and this phosphorylation can be specifically detected by cross-reactivity of a phospho-Mek1/2 antibody that is able to recognizes a mitotic-specific phosphorylated form of nucleophosmin (B23) in a nocodazole dependent way (Zhang, H., Shi, X., Paddon, H., Hampong, M., Dai, W., and Pelech, S. (2004) B23/Nuleophosmin Serin 4 Phosphorylation Mediates Mitotic Functions of Polo-like Kinase 1. J. Biol. Chem., 279(34), 35726-35734).
Briefly, HCT116 cells (ATCC, Order No. CCL-247) were plated in 96 well dishes 24 hours prior to nocodazole treatment at 25 000 cells per well. Cells were then treated with 100 ng/ml nocodazole (Sigma-Aldrich, # M1404). 20 hours after nocodazole treatment, cells were exposed to the test compounds at various concentrations appropriate to determine an IC50. 4 hours after compound addition, medium was carefully removed and 120 µl of Complete Tris Lysis Buffer (R60TX; MSD, Gaithersburg MD) was added to each well. Samples were then stored at -20°C.
The level of nucleophosmin (B23) Ser4 phosphorylation in these cell lysis samples was estimated by electrochemiluminescence detection using the Meso Scale Discovery ("MSD") Technology Platform (MSD, Gaithersburg MD). The protocol used was as recommended by the manufacturer with the use of a phospho-Mek1/2 antibody (Cell Signalling, #9121) as primary antibody, and is as follows.
The cell lysates were thawed at room temperature and 40 µl were incubated on 96-well MULTI-ARRAY High Bind plates (L11XB; MSD) for 1.5 - 2 hours at room temperature. The supernatants were then removed and 150 µl of a 5% (w/v) solution of Blocker A (R93AA; MSD) in Tris Wash Buffer (R61TX; MSD) were added to each well. The plates were then incubated for 1 hour at room temperature before removal of the Blocker A solution and washed 4 times with 200 µl Tris Wash Buffer. 25 µl primary antibody (anti-phospho-MEK1/2, Cell Signalling, #9121, rabbit polyclonal), diluted 1:250 in a 1% (w/v) solution of Blocker A in Tris Wash Buffer, were added to each well. The plates were then incubated for 1 hour at room temperature before removal of the antibody solution and washed 4 times with 200 µl Tris Wash Buffer. Then, 25 µl of labelled secondary antibody (SULFO-TAG Goat Anti-Rabbit IgGAntibody (R32AB; MSD), diluted 1:500 in a 1% (w/v) solution of Blocker A in Tris Wash Buffer) were added to each well. The plates were then incubated for 1 hour at room temperature before removal of the antibody solution and washed 4 times with 200 µl Tris Wash Buffer. Then, […] of 1x Read Buffer T (R92TC; MSD) were carefully added to each well and the plates were quantitatively detected for each well with a SECTOR™ Imager 6000 (MSD).
Inhibitory activity of the compounds (IC) was calculated as % inhibition of nucleophosmin (B23) Ser4 phosphorylation compared to cells not treated with nocodazole.

[2] = 72 hours, SRB assay, slow cycling cell line, read-out: CELLULAR IC50 IMR-90
[3] = HCT-116, 72 h, 72 hours, SRB assay, read-out: CELLULAR IC50 HCT 116
[4] = HT-29, 72 h, 72 hours, SRB assay, read-out: CELLULAR IC50 HT-29

Structure (SMILES): CCC1C(=O)N(C)c2cnc(Nc3ccc(C(=O)NC4CCN(C)CC4)cc3OC)nc2N1C1CCCC1 (centres unmarked) [BI 2536, reference compound]
- IC50 (PC-3): < 1000 nM
- IC50 (SK-MEL-28): < 1000 nM
- IC50 (IMR-90; 18-Cell Line Panel, lung, read-out: IC50 IMR-90): > 1000 nM
- IC50 (HCT 116; HCT-116, 18-Cell Line Panel, colon, read-out: IC50 HCT116): < 1000 nM
- IC50 (ACHN): < 1000 nM
- IC50 (A549): < 1000 nM
- IC50 (OVCAR-3): < 1000 nM
- IC50 (MDA-MB-231): < 1000 nM
- IC50 (SK-MEL-5): < 1000 nM
- IC50 (NCI-H460): < 1000 nM
- IC50 MDA-MB-468 (MDA-MB-468): plateau at ∼50%
- IC50 (SW620): < 1000 nM
- IC50 (A-431): < 1000 nM
- IC50 (A-375): < 1000 nM
- IC50 (COLO 205): < 1000 nM
- IC50 (HT-29; HT-29, 18-Cell Line Panel, colon, read-out: IC50 HT-29): < 1000 nM
- IC50 (DU 145): < 1000 nM
- IC50 (HeLa): < 1000 nM

- IC50 (HCT 116; [3]): < 1000 nM
- IC50 (Plk1): < 100 nM
- IC50 (HT-29; [4]): < 1000 nM
Structure (SMILES): CCC1C(=O)N(C)c2cnc(Nc3ccc(C(=O)NC4CCN(C5CCN(Cc6ccccc6)CC5)CC4)cc3OC)nc2N1N(C)C (centres unmarked) [Compound 14, N-(1'-Benzyl-[1,4']bipiperidinyl-4-yl)-4-(8-dimethylamino-7-ethyl-5-methyl-6-oxo-5,6,7,8-tetrahydro-pteridin-2-ylamino)-3-methoxy-benzamide]
- IC50 (IMR-90; [2]): > 1000 nM
- all other kinases were inhibited [1]: less than 10%

- IC50 (HCT 116; [3]): < 1000 nM
- IC50 (Plk1): < 100 nM
- IC50 (HT-29; [4]): < 1000 nM
Structure (SMILES): CCC1C(=O)N(C)c2cnc(Nc3ccc(C(=O)NC4CCN(C)CC4)cc3OC)nc2N1N(C)CC (centres unmarked) [Compound 25, 4-[7-Ethyl-8-(ethyl-methyl-amino)-5-methyl-6-oxo-5,6,7,8-tetrahydro-pteridin-2-ylamino]-3-methoxy-N-(1-methyl-piperidin-4-yl)-benzamide]
- IC50 (IMR-90; [2]): > 1000 nM
- all other kinases were inhibited [1]: less than 10%

- IC50 (HCT 116; [3]): < 1000 nM
- IC50 (Plk1): < 500 nM
- IC50 (HT-29; [4]): < 1000 nM
Structure (SMILES): CCC1C(=O)N(C)c2cnc(Nc3ccc(C(=O)NCC4CCN(CC)CC4)cc3OC)nc2N1N(C)CC1CCC1 (centres unmarked) [Compound 34, 4-[8-(Cyclobutylmethyl-methyl-amino)-7-ethyl-5-methyl-6-oxo-5,6,7,8-tetrahydro-pteridin-2-ylamino]-N-(1-ethyl-piperidin-4-ylmethyl)-3-methoxy-benzamide]
- IC50 (IMR-90; [2]): > 1000 nM
